In patent US11510933B2, “Use of Pulsatilla chinensis extract in the preparation of drugs for treatment of viral and/or bacterial diseases” (priority 2018, dated 2022):
Marks after values point to notes of the source that are not given here.

Legend:
[1] = system: cow clinical endometritis; test: treatment of cow clinical endometritis; format: in vivo, cows; settings: n = 10
Method: Anemoside B4 injection prepared in example 3, with a concentration of 50 mg/mL; Anemoside B4 intrauterine injection prepared in example 5, with a concentration of 50 mg/mL.
Positive drug: doxycycline hydrochloride intrauterine injection (24 g/injection, produced by Zhengzhou Bairui Animal Pharmaceutical Co., Ltd., batch No.: 170901).
130 cows with disease were randomly divided into 13 groups, 10 cows for each group.
The cows selected in this experiment were all those with clinical endometritis. During the experiment, the temperature, spirit and diet of the cows were normal.
Administration by […] injection: Administrating anemoside B4 by intramulscular injection, twice per day, one in the morning and another in the evening, for successive four days;
Administration by intrauterine infusion: administrating anemoside B4 and positive drug doxycycline hydrochloride by intrauterine infusion, once every other day, for 4 times.
A blank control group was set up in different administration routes, and the same dose of normal saline was administered.

[2] = system: canine distemper; test: treatment of canine distemper; format: in vivo, dogs; settings: for Cure / Death: 14 days, 10 dogs treated
Method: Anemoside B4 injection prepared in example 3, with a concentration of 50 mg/mL.
Dogs suffering from canine distemper are cases received by various pet hospitals in Chengdu.
According to the clinical symptoms, canine distemper can be divided into early, middle and late stages.
The vomit is mucus or yellow liquid, while the stool is dark brown or covered with mucus. As the progress of the disease course, dogs with canine distemper often develop secondary bacterial infections due to their decreased resistance.
Anemoside B4 injection was intravenously injected, 2 mL/time in low-dose group, 4 mL/time in medium-dose group, 8 mL/time in high-dose group, once a day; anemoside B4 injection was intramuscularly injected, 1 mL/time in low-dose group, 2 mL/time in the middle-dose group, 4 mL/time in the high-dose group, twice a day; the treatment was kept for 14 days.

[3] = high-dose, intramuscular injection 30 mL/time (50 mg/mL), twice per day, 4 days
[4] = high-dose, intrauterine infusion 30 mL/time (50 mg/mL), once every other day, 4 times
[5] = high-dose, intravenous injection 60 mL/time (50 mg/mL)
[6] = low-dose, intramuscular injection 10 mL/time (50 mg/mL), twice per day, 4 days
[7] = low-dose, intrauterine infusion 10 mL/time (50 mg/mL), once every other day, 4 times
[8] = low-dose, intravenous injection 20 mL/time (50 mg/mL)
[9] = medium-dose, intramuscular injection 20 mL/time (50 mg/mL), twice per day, 4 days
[10] = medium-dose, intrauterine infusion 20 mL/time (50 mg/mL), once every other day, 4 times
[11] = medium-dose, intravenous injection 40 mL/time (50 mg/mL)
[12] = high-dose, intramuscular injection 4 mL/time (50 mg/mL), twice a day
[13] = high-dose, intravenous injection 8 mL/time (50 mg/mL), once a day
[14] = low-dose, intramuscular injection 1 mL/time (50 mg/mL), twice a day
[15] = low-dose, intravenous injection 2 mL/time (50 mg/mL), once a day
[16] = medium-dose, intramuscular injection 2 mL/time (50 mg/mL), twice a day
[17] = medium-dose, intravenous injection 4 mL/time (50 mg/mL), once a day

In the case of `C=C(C)[C@@H]1CC[C@]2(C(=O)O[C@@H]3O[C@H](CO[C@@H]4O[C@H](CO)[C@@H](O[C@@H]5O[C@@H](C)[C@H](O)[C@@H](O)[C@H]5O)[C@H](O)[C@H]4O)[C@@H](O)[C@H](O)[C@H]3O)CC[C@]3(C)[C@H](CC[C@@H]4[C@@]5(C)CC[C@H](O[C@@H]6OC[C@H](O)[C@H](O)[C@H]6O[C@@H]6O[C@@H](C)[C@H](O)[C@@H](O)[C@H]6O)[C@@](C)(CO)[C@@H]5CC[C@]43C)[C@H]12` [anemoside B4], the “Mean time of first estrus after medication” value (“Mean time of first estrus” below) [1, 3] is reported as 25 ± 5.5 days, the Oestrus rate [1, 3] is reported as 65* % and the “Pregnancy rate in three estrous periods after delivery” value (shortened to “Pregnancy rate”) [1, 3] is reported as 56* %. The “Mean time of first estrus” value [1, 4] was 23 ± 6.2 days, the Oestrus rate [1, 4] was 78* % and the “Pregnancy rate” value [1, 4] was 75* %. For the same compound, the “Mean time of first estrus” value [1, 5] was 24 ± 5.2 days, the Oestrus rate [1, 5] was 68* % and the “Pregnancy rate” value [1, 5] was 58* %. For the same compound, the “Mean time of first estrus” value [1, 6] was 27 ± 5.8 days, the Oestrus rate [1, 6] was 54% and the “Pregnancy rate” value [1, 6] was 42%. The “Mean time of first estrus” value [1, 7] was 25 ± 5.4 days, the Oestrus rate [1, 7] was 64% and the “Pregnancy rate” value [1, 7] was 52%. For the same compound, the “Mean time of first estrus” value [1, 8] was 27 ± 6.4 days, the Oestrus rate [1, 8] was 57% and the “Pregnancy rate” value [1, 8] was 46%. The “Mean time of first estrus” value [1, 9] was 26 ± 4.6 days, the Oestrus rate [1, 9] was 60% and the “Pregnancy rate” value [1, 9] was 52%. For the same compound, the “Mean time of first estrus” value [1, 10] was 24 ± 7.3 days, the Oestrus rate [1, 10] was 74* % and the “Pregnancy rate” value [1, 10] was 70* %. The “Mean time of first estrus” value [1, 11] was 26 ± 4.3 days, the Oestrus rate [1, 11] was 63% and the “Pregnancy rate” value [1, 11] was 52%. For the same compound, the “therapeutic effect on canine distemper (conclusion in words)” value ([2]; dogs) was “a better therapeutic effect on canine distemper”, the Cure [2, 12] was 5 dog and the Death [2, 12] was 5 dog. For the same compound, the Cure [2, 13] was 6 dog, the Death [2, 13] was 4 dog and the Cure [2, 14] was 3 dog. The Death [2, 14] was 7 dog, the Cure [2, 15] was 4 dog and the Death [2, 15] was 6 dog. It also gave a Cure [2, 16] of 4 dog, a Death [2, 16] of 6 dog and a Cure [2, 17] of 5 dog. The Death [2, 17] was 5 dog.
